ChEMBL document CHEMBL1145498, “A systematic interaction map of validated kinase inhibitors with Ser/Thr kinases” (Proc Natl Acad Sci U S A, 2007)

biological target: Calcium/calmodulin-dependent protein kinase type II subunit beta (Homo sapiens) (UniProt Q13554)
Sequence (Q13554 whole entry): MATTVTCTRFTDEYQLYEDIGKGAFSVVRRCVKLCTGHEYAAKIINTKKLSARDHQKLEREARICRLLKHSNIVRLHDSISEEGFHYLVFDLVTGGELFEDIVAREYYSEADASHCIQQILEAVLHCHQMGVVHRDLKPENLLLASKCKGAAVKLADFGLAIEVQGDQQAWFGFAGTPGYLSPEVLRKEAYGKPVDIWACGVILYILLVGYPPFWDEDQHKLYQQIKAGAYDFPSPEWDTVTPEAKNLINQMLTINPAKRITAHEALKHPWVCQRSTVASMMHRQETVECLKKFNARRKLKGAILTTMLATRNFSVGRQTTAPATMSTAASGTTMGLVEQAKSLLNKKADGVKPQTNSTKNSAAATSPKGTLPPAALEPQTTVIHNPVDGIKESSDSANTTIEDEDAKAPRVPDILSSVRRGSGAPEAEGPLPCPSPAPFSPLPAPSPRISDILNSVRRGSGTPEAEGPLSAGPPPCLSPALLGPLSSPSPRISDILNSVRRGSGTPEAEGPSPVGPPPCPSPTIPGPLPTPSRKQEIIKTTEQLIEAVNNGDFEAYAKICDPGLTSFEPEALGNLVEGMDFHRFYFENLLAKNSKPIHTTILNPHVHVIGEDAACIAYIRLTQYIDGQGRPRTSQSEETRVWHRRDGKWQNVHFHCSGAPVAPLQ

Row | ΔTm | SMILES
1 | 0.1 °C | CC(C)n1cnc2c(NCc3ccccc3)nc(NCCCO)nc21
2 | 2 °C | Cn1cc(C2=C(c3cn(CCCSC(=N)N)c4ccccc34)C(=O)NC2=O)c2ccccc21
3 | -0.1 °C | COC1=C2C[C@@H](C)C[C@H](OC)[C@H](O)[C@@H](C)/C=C(\C)[C@H](OC(N)=O)[C@@H](OC)/C=C\C=C(/C)C(=O)NC(=CC1=O)C2=O
4 | -0.2 °C | CCOc1cc(/C=C(\C#N)C(N)=O)cc(CSc2ccccc2)c1O
5 | 0.1 °C | Ic1cccc(CSc2nnc(-c3ccncc3)o2)c1
6 | 0.5 °C | C#Cc1cccc(Nc2ncnc3cc(OCCOC)c(OCCOC)cc23)c1

biological target: Glycogen synthase kinase-3 beta (Homo sapiens, UniProt P49841)
Sequence (P49841 whole entry, looked up): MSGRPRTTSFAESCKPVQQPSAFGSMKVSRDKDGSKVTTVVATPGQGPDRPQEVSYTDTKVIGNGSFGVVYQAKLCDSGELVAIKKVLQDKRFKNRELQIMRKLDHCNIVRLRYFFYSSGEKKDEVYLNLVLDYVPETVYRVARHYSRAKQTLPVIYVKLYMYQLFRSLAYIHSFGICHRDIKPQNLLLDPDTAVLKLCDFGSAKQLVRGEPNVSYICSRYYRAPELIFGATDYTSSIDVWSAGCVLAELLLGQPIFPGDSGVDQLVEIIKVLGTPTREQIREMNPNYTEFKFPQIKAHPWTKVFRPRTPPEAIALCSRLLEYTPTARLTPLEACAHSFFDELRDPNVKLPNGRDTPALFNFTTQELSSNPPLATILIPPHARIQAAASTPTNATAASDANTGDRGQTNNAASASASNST

Row | ΔTm | SMILES
7 | 0.5 °C | CC(C)n1cnc2c(NCc3ccccc3)nc(NCCCO)nc21
8 | 12.8 °C | Cn1cc(C2=C(c3cn(CCCSC(=N)N)c4ccccc34)C(=O)NC2=O)c2ccccc21
9 | 0.5 °C | COC1=C2C[C@@H](C)C[C@H](OC)[C@H](O)[C@@H](C)/C=C(\C)[C@H](OC(N)=O)[C@@H](OC)/C=C\C=C(/C)C(=O)NC(=CC1=O)C2=O
10 | 1.1 °C | CCOc1cc(/C=C(\C#N)C(N)=O)cc(CSc2ccccc2)c1O
11 | 7.1 °C | Ic1cccc(CSc2nnc(-c3ccncc3)o2)c1
12 | -0.1 °C | C#Cc1cccc(Nc2ncnc3cc(OCCOC)c(OCCOC)cc23)c1

biological target: Serine/threonine-protein kinase VRK2 (Homo sapiens) (UniProt Q86Y07)
Sequence (Q86Y07 whole entry): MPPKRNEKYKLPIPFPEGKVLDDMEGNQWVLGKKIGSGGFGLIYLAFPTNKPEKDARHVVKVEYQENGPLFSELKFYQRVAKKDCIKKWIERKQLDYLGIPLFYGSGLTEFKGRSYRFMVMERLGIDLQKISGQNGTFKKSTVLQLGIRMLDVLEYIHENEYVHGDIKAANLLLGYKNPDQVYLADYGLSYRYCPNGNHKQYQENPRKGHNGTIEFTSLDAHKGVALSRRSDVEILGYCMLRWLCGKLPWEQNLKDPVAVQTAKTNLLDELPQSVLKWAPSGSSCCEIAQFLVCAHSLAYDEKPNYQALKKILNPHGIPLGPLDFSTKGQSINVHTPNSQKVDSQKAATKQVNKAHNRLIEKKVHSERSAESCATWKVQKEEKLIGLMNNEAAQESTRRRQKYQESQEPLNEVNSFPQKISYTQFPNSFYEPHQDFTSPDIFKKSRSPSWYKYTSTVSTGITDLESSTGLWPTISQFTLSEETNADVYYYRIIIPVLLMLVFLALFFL

Row | ΔTm | SMILES
13 | 1.2 °C | CC(C)n1cnc2c(NCc3ccccc3)nc(NCCCO)nc21
14 | 0.9 °C | Cn1cc(C2=C(c3cn(CCCSC(=N)N)c4ccccc34)C(=O)NC2=O)c2ccccc21
15 | 0.2 °C | COC1=C2C[C@@H](C)C[C@H](OC)[C@H](O)[C@@H](C)/C=C(\C)[C@H](OC(N)=O)[C@@H](OC)/C=C\C=C(/C)C(=O)NC(=CC1=O)C2=O
16 | 0.1 °C | CCOc1cc(/C=C(\C#N)C(N)=O)cc(CSc2ccccc2)c1O
17 | -0.3 °C | Ic1cccc(CSc2nnc(-c3ccncc3)o2)c1
18 | 0.5 °C | C#Cc1cccc(Nc2ncnc3cc(OCCOC)c(OCCOC)cc23)c1

biological target: Serine/threonine-protein kinase PAK 6 (Homo sapiens) (UniProt Q9NQU5)
Sequence (Q9NQU5 whole entry, looked up): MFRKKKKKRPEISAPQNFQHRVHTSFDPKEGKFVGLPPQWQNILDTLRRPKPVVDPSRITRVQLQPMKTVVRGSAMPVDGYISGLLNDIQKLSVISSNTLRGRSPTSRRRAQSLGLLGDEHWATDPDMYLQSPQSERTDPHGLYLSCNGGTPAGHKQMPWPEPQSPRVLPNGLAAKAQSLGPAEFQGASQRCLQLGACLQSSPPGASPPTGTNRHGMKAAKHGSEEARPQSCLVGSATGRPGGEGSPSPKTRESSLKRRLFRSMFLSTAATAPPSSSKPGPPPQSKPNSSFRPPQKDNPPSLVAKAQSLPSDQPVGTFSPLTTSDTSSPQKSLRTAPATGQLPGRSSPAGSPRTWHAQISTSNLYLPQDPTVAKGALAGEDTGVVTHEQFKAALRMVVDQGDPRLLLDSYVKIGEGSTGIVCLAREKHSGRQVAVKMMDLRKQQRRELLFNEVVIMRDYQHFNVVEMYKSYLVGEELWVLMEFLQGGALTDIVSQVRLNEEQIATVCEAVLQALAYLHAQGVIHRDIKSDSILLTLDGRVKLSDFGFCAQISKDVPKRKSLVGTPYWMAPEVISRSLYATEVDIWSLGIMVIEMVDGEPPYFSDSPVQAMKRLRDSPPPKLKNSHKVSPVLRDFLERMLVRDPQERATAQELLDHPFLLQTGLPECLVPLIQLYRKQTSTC

Row | ΔTm | SMILES
19 | 0.6 °C | CC(C)n1cnc2c(NCc3ccccc3)nc(NCCCO)nc21
20 | 3.1 °C | Cn1cc(C2=C(c3cn(CCCSC(=N)N)c4ccccc34)C(=O)NC2=O)c2ccccc21
21 | 0.3 °C | COC1=C2C[C@@H](C)C[C@H](OC)[C@H](O)[C@@H](C)/C=C(\C)[C@H](OC(N)=O)[C@@H](OC)/C=C\C=C(/C)C(=O)NC(=CC1=O)C2=O
22 | -0.4 °C | CCOc1cc(/C=C(\C#N)C(N)=O)cc(CSc2ccccc2)c1O
23 | 0.2 °C | Ic1cccc(CSc2nnc(-c3ccncc3)o2)c1
24 | -0.1 °C | C#Cc1cccc(Nc2ncnc3cc(OCCOC)c(OCCOC)cc23)c1

biological target: Serine/threonine-protein kinase 16 (Homo sapiens) (UniProt O75716)
Sequence (O75716 whole entry): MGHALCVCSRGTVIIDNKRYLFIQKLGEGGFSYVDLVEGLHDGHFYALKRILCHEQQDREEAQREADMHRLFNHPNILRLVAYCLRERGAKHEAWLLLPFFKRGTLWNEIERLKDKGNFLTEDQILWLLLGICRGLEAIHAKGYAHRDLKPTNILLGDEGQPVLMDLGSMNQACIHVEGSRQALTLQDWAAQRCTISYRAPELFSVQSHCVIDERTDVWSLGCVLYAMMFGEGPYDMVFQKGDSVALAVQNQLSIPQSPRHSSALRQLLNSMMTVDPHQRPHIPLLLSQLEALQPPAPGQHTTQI

Row | ΔTm | SMILES
25 | 0.6 °C | CC(C)n1cnc2c(NCc3ccccc3)nc(NCCCO)nc21
26 | 3.9 °C | Cn1cc(C2=C(c3cn(CCCSC(=N)N)c4ccccc34)C(=O)NC2=O)c2ccccc21
27 | 0.4 °C | COC1=C2C[C@@H](C)C[C@H](OC)[C@H](O)[C@@H](C)/C=C(\C)[C@H](OC(N)=O)[C@@H](OC)/C=C\C=C(/C)C(=O)NC(=CC1=O)C2=O
28 | 1 °C | CCOc1cc(/C=C(\C#N)C(N)=O)cc(CSc2ccccc2)c1O
29 | 0.2 °C | Ic1cccc(CSc2nnc(-c3ccncc3)o2)c1
30 | 0.7 °C | C#Cc1cccc(Nc2ncnc3cc(OCCOC)c(OCCOC)cc23)c1

biological target: Cyclin-dependent kinase-like 1 (Homo sapiens) (UniProt Q00532)
Sequence (Q00532 whole entry): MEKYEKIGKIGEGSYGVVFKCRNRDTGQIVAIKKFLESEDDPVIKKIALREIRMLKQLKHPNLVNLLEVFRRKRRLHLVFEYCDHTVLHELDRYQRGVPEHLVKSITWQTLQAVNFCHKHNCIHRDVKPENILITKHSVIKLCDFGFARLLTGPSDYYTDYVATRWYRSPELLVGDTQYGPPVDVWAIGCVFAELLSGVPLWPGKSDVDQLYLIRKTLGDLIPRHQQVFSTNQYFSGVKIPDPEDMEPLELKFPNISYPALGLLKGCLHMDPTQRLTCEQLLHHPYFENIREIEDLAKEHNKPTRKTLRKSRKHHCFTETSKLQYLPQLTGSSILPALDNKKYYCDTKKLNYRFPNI

Row | ΔTm | SMILES
31 | -0.1 °C | CC(C)n1cnc2c(NCc3ccccc3)nc(NCCCO)nc21
32 | 2.2 °C | Cn1cc(C2=C(c3cn(CCCSC(=N)N)c4ccccc34)C(=O)NC2=O)c2ccccc21
33 | -0.5 °C | COC1=C2C[C@@H](C)C[C@H](OC)[C@H](O)[C@@H](C)/C=C(\C)[C@H](OC(N)=O)[C@@H](OC)/C=C\C=C(/C)C(=O)NC(=CC1=O)C2=O
34 | -0.1 °C | CCOc1cc(/C=C(\C#N)C(N)=O)cc(CSc2ccccc2)c1O
35 | -0.7 °C | Ic1cccc(CSc2nnc(-c3ccncc3)o2)c1
36 | 0 °C | C#Cc1cccc(Nc2ncnc3cc(OCCOC)c(OCCOC)cc23)c1

biological target: Serine/threonine-protein kinase 38 (Homo sapiens) (UniProt Q15208)
Sequence (Q15208 2-465 limits assumed): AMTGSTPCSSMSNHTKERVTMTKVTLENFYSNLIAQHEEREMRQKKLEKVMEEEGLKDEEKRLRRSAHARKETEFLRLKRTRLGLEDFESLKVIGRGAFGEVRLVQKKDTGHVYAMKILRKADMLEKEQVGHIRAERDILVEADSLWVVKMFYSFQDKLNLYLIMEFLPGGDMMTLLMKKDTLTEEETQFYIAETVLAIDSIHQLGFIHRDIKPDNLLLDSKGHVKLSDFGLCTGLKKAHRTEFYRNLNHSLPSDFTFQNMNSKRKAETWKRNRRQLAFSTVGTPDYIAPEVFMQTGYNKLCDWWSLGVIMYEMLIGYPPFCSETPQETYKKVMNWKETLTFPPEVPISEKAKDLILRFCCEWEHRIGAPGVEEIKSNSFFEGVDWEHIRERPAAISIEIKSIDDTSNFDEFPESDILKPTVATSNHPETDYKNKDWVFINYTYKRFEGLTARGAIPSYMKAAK

Row | ΔTm | SMILES
37 | 0.3 °C | CC(C)n1cnc2c(NCc3ccccc3)nc(NCCCO)nc21
38 | 0.8 °C | Cn1cc(C2=C(c3cn(CCCSC(=N)N)c4ccccc34)C(=O)NC2=O)c2ccccc21
39 | 0.2 °C | COC1=C2C[C@@H](C)C[C@H](OC)[C@H](O)[C@@H](C)/C=C(\C)[C@H](OC(N)=O)[C@@H](OC)/C=C\C=C(/C)C(=O)NC(=CC1=O)C2=O
40 | 0.3 °C | CCOc1cc(/C=C(\C#N)C(N)=O)cc(CSc2ccccc2)c1O
41 | 0.8 °C | Ic1cccc(CSc2nnc(-c3ccncc3)o2)c1
42 | -0.3 °C | C#Cc1cccc(Nc2ncnc3cc(OCCOC)c(OCCOC)cc23)c1

biological target: Casein kinase I isoform gamma-1 (Homo sapiens) (UniProt Q9HCP0)
Sequence (Q9HCP0 whole entry, looked up, canonical isoform): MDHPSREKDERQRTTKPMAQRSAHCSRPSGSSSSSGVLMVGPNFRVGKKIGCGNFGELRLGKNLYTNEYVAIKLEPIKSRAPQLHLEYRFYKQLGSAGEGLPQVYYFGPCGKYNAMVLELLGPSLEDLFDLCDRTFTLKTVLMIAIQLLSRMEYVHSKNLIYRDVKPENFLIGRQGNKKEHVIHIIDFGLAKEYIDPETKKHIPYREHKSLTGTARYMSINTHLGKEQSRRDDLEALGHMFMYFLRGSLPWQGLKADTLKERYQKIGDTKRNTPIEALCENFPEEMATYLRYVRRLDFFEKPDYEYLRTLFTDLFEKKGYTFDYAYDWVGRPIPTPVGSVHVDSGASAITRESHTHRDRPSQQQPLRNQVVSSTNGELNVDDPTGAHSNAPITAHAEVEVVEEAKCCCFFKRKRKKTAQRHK

Row | ΔTm | SMILES
43 | 1.4 °C | CC(C)n1cnc2c(NCc3ccccc3)nc(NCCCO)nc21
44 | 0.6 °C | Cn1cc(C2=C(c3cn(CCCSC(=N)N)c4ccccc34)C(=O)NC2=O)c2ccccc21
45 | 0.5 °C | COC1=C2C[C@@H](C)C[C@H](OC)[C@H](O)[C@@H](C)/C=C(\C)[C@H](OC(N)=O)[C@@H](OC)/C=C\C=C(/C)C(=O)NC(=CC1=O)C2=O
46 | 0.2 °C | CCOc1cc(/C=C(\C#N)C(N)=O)cc(CSc2ccccc2)c1O
47 | 0.6 °C | Ic1cccc(CSc2nnc(-c3ccncc3)o2)c1
48 | 0.5 °C | C#Cc1cccc(Nc2ncnc3cc(OCCOC)c(OCCOC)cc23)c1

biological target: T1, Serine/threonine-protein kinase PLK4 (Homo sapiens) (UniProt O00444)
T1 sequence (whole entry): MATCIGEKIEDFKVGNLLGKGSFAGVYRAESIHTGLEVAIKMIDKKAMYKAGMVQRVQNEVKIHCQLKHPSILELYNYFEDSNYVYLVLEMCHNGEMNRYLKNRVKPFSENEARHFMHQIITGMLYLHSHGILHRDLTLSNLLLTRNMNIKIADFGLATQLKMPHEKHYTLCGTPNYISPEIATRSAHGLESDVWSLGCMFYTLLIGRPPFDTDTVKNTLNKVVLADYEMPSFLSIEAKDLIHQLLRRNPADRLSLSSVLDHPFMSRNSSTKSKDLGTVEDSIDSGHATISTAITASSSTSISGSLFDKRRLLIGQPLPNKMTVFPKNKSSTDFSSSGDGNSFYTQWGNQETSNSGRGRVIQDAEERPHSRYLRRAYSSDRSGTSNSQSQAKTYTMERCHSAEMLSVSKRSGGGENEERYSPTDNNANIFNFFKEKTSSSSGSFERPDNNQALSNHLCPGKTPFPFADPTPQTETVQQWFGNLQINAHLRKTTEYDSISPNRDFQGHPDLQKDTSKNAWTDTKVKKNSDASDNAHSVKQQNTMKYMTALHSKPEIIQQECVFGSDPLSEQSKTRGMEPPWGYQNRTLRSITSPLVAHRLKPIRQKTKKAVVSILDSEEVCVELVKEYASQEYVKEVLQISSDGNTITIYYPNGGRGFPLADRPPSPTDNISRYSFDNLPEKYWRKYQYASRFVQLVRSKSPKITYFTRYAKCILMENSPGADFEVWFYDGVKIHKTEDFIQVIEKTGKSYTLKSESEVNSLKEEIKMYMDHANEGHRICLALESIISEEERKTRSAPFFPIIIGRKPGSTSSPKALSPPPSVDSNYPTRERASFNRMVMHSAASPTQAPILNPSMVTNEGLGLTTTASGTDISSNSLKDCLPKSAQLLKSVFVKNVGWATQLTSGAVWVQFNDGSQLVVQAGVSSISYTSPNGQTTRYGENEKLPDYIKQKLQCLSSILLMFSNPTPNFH

Row | ΔTm | SMILES
49 | 0.3 °C | CC(C)n1cnc2c(NCc3ccccc3)nc(NCCCO)nc21
50 | 2.6 °C | Cn1cc(C2=C(c3cn(CCCSC(=N)N)c4ccccc34)C(=O)NC2=O)c2ccccc21
51 | 0.2 °C | COC1=C2C[C@@H](C)C[C@H](OC)[C@H](O)[C@@H](C)/C=C(\C)[C@H](OC(N)=O)[C@@H](OC)/C=C\C=C(/C)C(=O)NC(=CC1=O)C2=O
52 | 2.8 °C | CCOc1cc(/C=C(\C#N)C(N)=O)cc(CSc2ccccc2)c1O
53 | 0.1 °C | Ic1cccc(CSc2nnc(-c3ccncc3)o2)c1
54 | -0.1 °C | C#Cc1cccc(Nc2ncnc3cc(OCCOC)c(OCCOC)cc23)c1

biological target: Serine/threonine-protein kinase PAK 4 (Homo sapiens) (UniProt O96013)
Sequence (O96013 whole entry, looked up): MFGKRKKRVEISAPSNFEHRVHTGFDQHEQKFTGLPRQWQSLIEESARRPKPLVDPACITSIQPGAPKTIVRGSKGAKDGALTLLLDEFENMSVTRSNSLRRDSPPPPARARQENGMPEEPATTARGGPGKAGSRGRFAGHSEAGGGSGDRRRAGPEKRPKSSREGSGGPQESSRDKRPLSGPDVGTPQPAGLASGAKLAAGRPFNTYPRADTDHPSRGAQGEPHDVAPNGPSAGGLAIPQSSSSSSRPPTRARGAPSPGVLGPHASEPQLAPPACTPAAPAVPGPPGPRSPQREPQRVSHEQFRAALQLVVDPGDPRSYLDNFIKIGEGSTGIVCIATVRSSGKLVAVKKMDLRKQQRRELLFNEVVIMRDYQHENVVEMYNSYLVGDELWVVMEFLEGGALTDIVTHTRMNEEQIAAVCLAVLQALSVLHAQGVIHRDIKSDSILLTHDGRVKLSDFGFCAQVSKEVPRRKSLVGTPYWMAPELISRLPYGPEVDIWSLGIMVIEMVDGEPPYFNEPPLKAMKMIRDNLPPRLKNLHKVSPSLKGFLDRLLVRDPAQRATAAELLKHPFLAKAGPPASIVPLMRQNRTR

Row | ΔTm | SMILES
55 | -0.6 °C | CC(C)n1cnc2c(NCc3ccccc3)nc(NCCCO)nc21
56 | 3.4 °C | Cn1cc(C2=C(c3cn(CCCSC(=N)N)c4ccccc34)C(=O)NC2=O)c2ccccc21
57 | -0.2 °C | COC1=C2C[C@@H](C)C[C@H](OC)[C@H](O)[C@@H](C)/C=C(\C)[C@H](OC(N)=O)[C@@H](OC)/C=C\C=C(/C)C(=O)NC(=CC1=O)C2=O
58 | -0.5 °C | CCOc1cc(/C=C(\C#N)C(N)=O)cc(CSc2ccccc2)c1O
59 | -0.1 °C | Ic1cccc(CSc2nnc(-c3ccncc3)o2)c1
60 | 1.6 °C | C#Cc1cccc(Nc2ncnc3cc(OCCOC)c(OCCOC)cc23)c1
